Measured values published in PubChem BioAssay AID2740 (NMMLSC, 2010).
Several values for one entry are separate records, joined by “and”; a condition that tells them apart may be missing. Identical values can stand only once. Activity calls are given as the source filed them.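 Rule for the calls: active = compounds whose fitted half-maximal concentration for changing the GFP signal is at or below a set limit; inactive = the rest.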

test: TOR pathway RPL19A-GFP modulators, concentration series – cell-based, S. cerevisiae, flow cytometry, MLPCN hits, dose response (AID 2740);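 note: background is signal of the same compound in parental non-GFP s288c yeast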; details: S. cerevisiae RPL19A-GFP strain, flow cytometry fluorescence, 3 h; at 33 µM (top of the series)

| Compound | GFP fluorescence, lower = active (kMESF (background-subtracted)) |
| --- | --- |
| O=C(Nc1ccccc1)ON=C1CCCC1 | 42.1 (inactive) |
| Oc1ccc2ccccc2c1N=Nc1nccs1 | 51 (inactive) |
| COc1ccc(C=C2C(=O)c3ccccc3C2=O)cc1O | 38.1 (inactive) |
| CCN1/C(=C/c2ccc3cc(C)ccc3[n+]2CC)Sc2ccc3sccc3c21 | 31.5 (inactive) |
| O=[N+]([O-])c1c(Nc2ccccn2)cc(Cl)c2nonc12 | 68.3 (inactive) |
| Cc1[nH]n(-c2ccccc2)c(=O)c1C(c1ccccc1[N+](=O)[O-])C(C#N)C#N (stereo not drawn) | 24.7 (inactive) |
| C=CCOc1ccccc1C(=O)/C=C1/C(=O)Nc2ccccc21 | 41.5 (inactive) |
| CCC(=O)Oc1oc(-c2ccccc2)nc1C=Nc1ccccc1OC | 41.6 (inactive) |
| CC(=O)c1ccc(N2CCN(C(=O)c3ccc(Br)cc3)CC2)c(F)c1 | 46.1 (inactive) |
| Cc1ccc(NC(=O)ON=C2CCCC2)cc1 | 39.3 (inactive) |
| O=C1N(c2ccccc2C(F)(F)F)OC1(Cc1ccccc1)c1ccccc1 (stereo not drawn) | 45.8 (inactive) |
| c1ccc(-c2cccc(-c3ccccn3)n2)nc1 | 36.2 (inactive) |
| CC(C)(C)C1C/C(=C/c2ccccn2)C(=O)/C(=C/c2ccccn2)C1 (stereo not drawn) | 41.4 (inactive) |
| CCn1c(/C=C/c2ccc([N+](=O)[O-])o2)nc2ccccc2c1=O | -37.1 (inactive) |
| Cc1cc2ccccn2c1C(=O)c1ccc([N+](=O)[O-])o1 | 20.7 (inactive) |
| O=C(O)c1ccc2c(c1)C(=O)/C(=C/c1ccccc1)C2=O | 36.8 (inactive) |
| CC[C@]1(c2ccccc2OC)ON(c2ccccc2C(F)(F)F)C1=O | 33.7 (inactive) |
| COc1ccc2c(c1)c(/C=C/c1cc[n+](C)cc1)cn2C | 40 (inactive) |
| CCC1(c2ccccc2)ON(c2c(Br)cccc2Br)C1=O (stereo not drawn) | 34.8 (inactive) |
| Nc1nc(N)c2nc(CNc3ccc(C(=O)NC(CCC(=O)O)C(=O)O)cc3)cnc2n1 (stereo not drawn) | 45.5 (inactive) |
| O=C(/C=C/c1ccc(Cl)c([N+](=O)[O-])c1)c1cccnc1 | 36.9 (inactive) |

| Compound | GFP fluorescence, lower = active (kMESF (background-subtracted)) |
| --- | --- |
| CC1=CC(=O)C(C(C)C)=C/C1=N/OS(=O)(=O)c1ccccc1 | 23.9 (inactive) |
| O=C(Cc1ccc(Cl)cc1)NNC(=S)NC(=O)c1cccs1 | 45.9 (inactive) |
| Cc1cc(C)nc(S/C=C/C(=O)c2ccccc2)n1 | 47.4 (inactive) |
| COc1ccccc1C(=O)NNC(=S)NC(=O)c1cccs1 | 43.5 (inactive) |
| CC1(C)OC(c2ccccc2)=C/C(=C/C=C2C(=O)NC(=S)NC2=O)O1 | 37 (inactive) |
| Cc1cc(C(=O)Nc2nc(-c3ccccn3)cs2)ccc1[N+](=O)[O-] | 48.9 (inactive) |
| C=CCN1C(=O)/C(=C/c2ccc(-c3ccc(F)cc3)o2)SC1=S | 34.7 (inactive) |
| O=C(/C=C/c1ccc(Br)cc1)NC(=S)NNC(=O)c1ccco1 | 50.2 (inactive) |
| Cc1ccnc(N2C(=O)c3cccc4c([N+](=O)[O-])ccc(c34)C2=O)c1 | 56.1 (inactive) |
| COc1ccccc1NC1=C(Cl)C(=O)N(c2ccccc2)C1=O | 39.5 (inactive) |
| Cc1ccc(C(=O)NNC(=S)NC(=O)COc2ccccc2)cc1 | 41.1 (inactive) |
| O=C(OCn1ncc(Br)c(Br)c1=O)c1ccccc1Cl | 44.4 (inactive) |
| Cc1ccccc1OCC(=O)NNC(=S)NC(=O)c1ccco1 | 44.1 (inactive) |
| O=C(Nc1ccc(NC(=O)c2cc3ccccc3o2)cc1)c1ccco1 | 39.7 (inactive) |
| Clc1cccc(CN2COc3c(cc(Cl)c4cccnc34)C2)c1 | 36.5 (inactive) |
| CCN1/C(=C/C=C/c2sc3ccccc3[n+]2CC)Sc2ccccc21 | 31.9 (inactive) |
| COc1ccc(C(=O)/C=C2/C(=O)Nc3ccccc32)cc1OC | 43.1 (inactive) |
| Cc1cc(NC(=O)c2cccnc2Cl)ccc1NC(=O)c1cc2ccccc2o1 | 39.6 (inactive) |
| C#CCOc1c(Br)cc(/C=C2/C(=O)ON=C2C)cc1OC | 32.9 (inactive) |
| N/C(Cc1ccc(Cl)c(Cl)c1)=N\OC(=O)c1cccs1 | 40.7 (inactive) |
| Cc1ccc(/C(N)=N/OC(=O)c2ccc(F)cc2)cc1 | 43.7 (inactive) |

| Compound | GFP fluorescence, lower = active (kMESF (background-subtracted)) |
| --- | --- |
| CN(C)c1ccc(N=Cc2nc(-c3ccccc3)oc2OC(=O)c2cccc(Cl)c2)cc1 | 44.1 (inactive) |
| N/C(Cc1ccc(Cl)cc1Cl)=N\OC(=O)c1ccccc1 | 28.6 (inactive) |
| COc1cc(N=c2ssnc2Cl)c(OC)cc1Cl | 22.5 (inactive) and 23.2 (inactive) |
| Cc1ccc(/C=C2/SC(=S)N(C3CCCCC3)C2=O)o1 | 38.3 (inactive) |
| C/C(=N/NC(=O)c1ccc(C(C)(C)C)cc1)c1ccccn1 | 45.9 (inactive) |
| Cc1[nH]c2ccccc2c1C(=O)COC(=O)c1ccc([N+](=O)[O-])s1 | 13.6 (inactive) |
| CCOC(=O)Cn1cc(/C=C/[N+](=O)[O-])c2ccccc21 | 39.5 (inactive) |
| O=C1C(Cl)=C(NCCc2ccccc2)C(=O)N1CCc1ccccc1 | 43.1 (inactive) |
| O=c1c2cc(Cl)ccc2nc(-c2ccc([N+](=O)[O-])cc2)n1O | 14 (inactive) |
| COc1ccc(CCNC2=C(Cl)C(=O)N(CCc3ccccc3)C2=O)cc1OC | 40 (inactive) |
| O=C1c2ccccc2C(=O)N1OS(=O)(=O)c1ccc(F)cc1 | 37.2 (inactive) |
| CCCCc1ccc(NC(=O)CC(C)=O)cc1 | 47.2 (inactive) |
| Oc1ccc(COCc2ccccc2)c2cccnc12 | 46.5 (inactive) |
| Cc1ccc(C2=NN(S(C)(=O)=O)C(c3ccc4c(c3)OCO4)C2)cc1 (stereo not drawn) | 44.8 (inactive) |
| COc1ccccc1C(=O)NNC(=S)NC(=O)c1ccco1 | 35.5 (inactive) |
| COc1cc(/C=C/c2ccc3c(Br)cc(Br)c(O)c3n2)ccc1O | 29.4 (inactive) |
| COc1ccc([N+](=O)[O-])c(S(=O)(=O)c2ccccc2)n1 | 39.1 (inactive) |
| Cc1ccc2[nH]cc(/C=C/c3cc[n+](C)cc3)c2c1 | 38.4 (inactive) |
| C=CCN1C(=O)/C(=C/c2cccs2)C(=O)NC1=S | 15.8 (inactive) |
| Nc1ccc2ccc3cccc[n+]3c2c1 | 45.9 (inactive) |
| COc1ccc(C(=O)NC(=S)NNC(=O)c2cnccn2)cc1OC | 38.6 (inactive) |

| Compound | GFP fluorescence, lower = active (kMESF (background-subtracted)) |
| --- | --- |
| Oc1c(Br)cc(Br)cc1C=Nc1ccc2[nH]ncc2c1 | 36 (inactive) |
| COc1ccc(N2C(=O)CC(Sc3ncn[nH]3)C2=O)c(OC)c1 (stereo not drawn) | 42.2 (inactive) |
| CC(=O)Oc1ccc(/C=c2\sc3ncnn3c2=O)cc1 | 50 (inactive) |
| COc1ccc(C(=O)NC(=S)NNC(=O)c2cnccn2)cc1 | 35.4 (inactive) |
| O=[N+]([O-])c1cc(CN2CCN(c3ccccc3)CC2)c(O)c2ncccc12 | 45.6 (inactive) |
| O=C(Oc1c(Cl)cc(Cl)c2cccnc12)c1cccs1 | 36.1 (inactive) |
| Clc1cnc(N/N=C/c2cccs2)c(Cl)c1 | 43.5 (inactive) |
| COc1ccc(/C=C2\C(=O)ON=C2c2ccccc2)cc1 | 24.9 (inactive) |
| O=S(=O)(/N=C(/Sc1ccccc1)c1ccccc1)c1ccccc1 | 34.5 (inactive) |
| C/C(=N\NC(=O)c1cc2ccccc2cc1O)c1ccccn1 | 45.5 (inactive) |
| O=C(Nc1ccc(NC(=O)c2cc3ccccc3o2)cc1)c1ccc2c(c1)OCCO2 | 40.1 (inactive) |
| COc1ccc(N2C(=O)C(Cl)=C(Oc3cccc(OC)c3)C2=O)cc1 | 45.6 (inactive) |
| COc1cc(NC(=O)c2cccc(C)c2)ccc1NC(=O)c1cc2ccccc2o1 | 39.6 (inactive) |
| Cc1ccc(-c2nc(N)c3c(-c4ccc(C)cc4)nn(C(C)(C)C)c3n2)cc1 | 43.1 (inactive) |
| CC(C)Cn1c(=O)c(C(=O)Nc2ccncc2)c(O)c2ccccc21 | 5.71 (inactive) |
| COc1cc(SSc2cc(OC)cc([N+](=O)[O-])c2N)c(N)c([N+](=O)[O-])c1 | 32.6 (inactive) |
| Cc1cccc(C(=O)NC(=S)NNC(=O)Cc2ccccc2)c1 | 52.4 (inactive) |
| COc1ccc(/C=C2/C(=O)ON=C2c2ccccc2)cc1OC | 39.5 (inactive) |
| COC(CNC(=O)c1ccc2c3c(onc13)-c1ccccc1C2=O)OC | 14.8 (inactive) |
| Cc1[nH][nH]c(=O)c1C(c1ccc(-c2ccc(Cl)cc2)o1)c1c(C)[nH][nH]c1=O | 41.2 (inactive) |
